Here are results for three molecules from patent publication US20100144704A1, “Method of reducing amyloid-beta peptide levels using a bisdioxopiperazine” (priority 2006, published 2010).

Several values for one entry are separate records, joined by “and”; a condition that tells them apart may be missing. Equal entries are not always repeated.

In data set [1] the test system is SHSY-5Y human neuronal cells. The data set is described as follows: Cellular toxicity / cell viability by MTT assay. The data set is classed as cell-based. Here is the method:
(§1) Cell Culture. The human neuroblastoma cell line, SHSY-5Y, was obtained from the American Type Culture Collection, culture medium was from Mediatech, Inc. (Herndon, Va.) and FCS from HyClone (Logan, Utah). Drug Treatment. […] Cells were allowed to grow in complete media (10% FCS, 2 mM glutamine in DMEM) for 2 days to reach 70% confluence. Thereafter, spent media was removed and replaced with fresh media (2 mL DMEM) containing 0 to 100 μM of freshly prepared compounds (clioquinol, razoxane and dexrazoxane. Cells were incubated at 37° C., 5% CO2 for 16 h. APP Western Blot and cell viability. Fifteen μg of protein from each sample was mixed with Laemmli buffer, boiled for 5 min at 100° C., and loaded onto a 10% SDS PAGE gel (Novex, San Diego, Calif.). […] The blots were incubated in secondary antibody, anti-mouse IgG—conjugated to horseradish peroxidase, for 30 min. Thereafter, samples were detected by chemiluminescence. Cell viability was assessed by a sensitive MTT assay. Values were expressed as the mean of between four and six independent assays and were statistically compared to control values. (See FIGS. 3-5).

Data set [2] concerns APP. Description: APP Western blot in SHSY-5Y cell culture. In kind it is cell-based, human. To be noted: for APP, percent control levels / APP, % control levels: 16 h; for APP, % control levels: FIG. 5 study. On the procedure: as §1
For data set [3] the following is noted: razoxane compared to dexrazoxane.
Text: The pharmacokinetics of razoxane compared to those of dexrazoxane.
For data set [4] the following is noted: cited from earlier work.
For data set [5] the following is noted: cited from earlier work. The source holds these as a separate data set.
Data set [6] concerns Aβ1-42 peptide. Description: Brain Aβ1-42 by sandwich ELISA in double transgenic mice after 21 day razoxane treatment. To be noted: for Average Conc, Aβ1-42: group average; for Conc, Aβ1-42: individual mouse cerebral cortex sample. The data set is classed as in vivo. On the procedure: (§2) Double transgenic male mice (APP Swedish mutation+PS1 mutation) express human amyloid precursor protein (APP) and amyloid-β peptide (Aβ) within their brain and form amyloid depositions from 4 months onward. Razoxane (ICRF 159) was administered by intraperitoneal (i.p.) injection once daily for 21 consecutive days to a group of such mice, 5 to 6 months of age and approximately 22 to 28 g in weight. […] Within three hours of the final razoxane/vehicle administration, animals were killed, their brain exposed and a 50-80 mg sample of cerebral cortex collected and frozen at […].

The conditions of data set [7]: in vivo; cited from earlier work.
The subject of data set [8] is Aβ1-40 peptide. The data set is described as follows: Brain Aβ1-40 by sandwich ELISA in double transgenic mice after 21 day razoxane treatment. In kind it is in vivo. The following applies: for Average Conc, Aβ1-40: group average; for Conc, Aβ1-40: individual mouse cerebral cortex sample. Here is the method:
as §2

Setting [9] is: 30 mg/kg once daily x 21 days, male 5 month old transgenic mice.
[10] abbreviates: razoxane 20 mg/kg i.p. once daily x 21 days.
[11] abbreviates: razoxane 30 mg/kg i.p. once daily x 21 days.

For `Oc1c(I)cc(Cl)c2cccnc12` [Clioquinol], the Cell viability result in data set [1] (10 μM, associated with the 18% APP decline, FIG. 4) is reported as “loss of cell viability”. Further, the “APP, percent control levels” value in data set [2] (0.5 μM, FIG. 4) came to 108%; in data set [2] (2 μM, FIG. 4), 116%; in data set [2] (10 μM, FIG. 4), 82%. The “Effect at lowering APP (in words)” value in data set [2] (FIG. 4) is “without affect”.

Take `CC(CN1CC(=O)NC(=O)C1)N1CC(=O)NC(=O)C1` (single isomer, unassigned; (+)) [Dexrazoxane, (+)-1,2-Bis(3,5-dioxopiperazin-1-yl)propane]: in data set [3], the “Elimination from the body” value is “eliminated more rapidly”. Further, the “APP, % control levels” value in data set [2] (0.5 μM) amounted to 87%; in data set [2] (10 μM), 59%. Moreover, in data set [4], the “Aqueous solubility (in words)” value was “more soluble”.

As to `CC(CN1CC(=O)NC(=O)C1)N1CC(=O)NC(=O)C1` (racemic) [Razoxane, 1,2-bis(3,5-dioxopiperazin-1-yl)-propane], the “Elimination from the body” value in data set [3] is on record as “slower elimination”. In addition, the “Cellular toxicity against SHSY-5Y cells” value in data set [1] (concentrations up to 100 μM, 16 h, FIG. 3) was “well tolerated and without toxicity”. Besides, the “APP, percent control levels” value in data set [2] (0.5 μM, FIG. 4) is reported as 81%; in data set [2] (2 μM, FIG. 4) it was 60%; in data set [2] (10 μM, FIG. 4) it was 53%. Also, the “APP, % control levels” value in data set [2] (0.5 μM) came to 75%; in data set [2] (10 μM), 42%. In data set [5] (humans), the Plasma half-life result is reported as “about 3.5 hours”. Moreover, the Oral bioavailability result in data set [5] (in vivo, po) is “orally bioavailable”. Besides, in data set [5] (oral dose of 125 mg, twice a day for five days each week for up to two years), the Tolerance in humans result is “relatively well tolerated”. In addition, the “Reduction of brain Aβ1-42 compared to the control group” value in data set [6] (setting [9]) amounted to 29%. In addition, the results for the “Average Conc, Aβ1-42” value in data set [6] (setting [10]) and in data set [6] (setting [11]) were 564 pM and 326 pM, respectively. In addition, the “Conc, Aβ1-42” value was 489 pM and 545 pM and 533 pM and 562 pM and 553 pM and 701 pM in data set [6] (setting [10]); 365 pM and 504 pM and 471 pM and 216 pM and 27.2 pM and 370 pM in data set [6] (setting [11]). Further, the “Crossing of the blood/brain barrier” value in data set [7] is “cross the blood/brain barrier”. Besides, the “Reduction of brain Aβ1-40 compared to the control group” value in data set [8] (setting [9]) was determined as 46%. Besides, the results for the “Average Conc, Aβ1-40” value in data set [8] (setting [10]) and in data set [8] (setting [11]) were 375 pM and 213 pM, respectively. The “Conc, Aβ1-40” value is 316.435 pM and 386.757 pM and 378.84 pM and 406.557 pM and 290.284 pM and 468.154 pM in data set [8] (setting [10]); 162.992 pM and 310.189 pM and 295.464 pM and 129.452 pM and 134.783 pM and 244.537 pM in data set [8] (setting [11]). Besides, the “Aqueous solubility (in words)” value in data set [4] was “relatively low aqueous solubility”.
